Key:
eHEV-3 (JE03-1760F) [1] = test: Immunofluorescence assay of HEV ORF2 protein expression in PLC/PRF/5 cells; format: cell-based, Hepatitis E virus genotype 3; conditions: day 4 post-inoculation
eHEV-nanoKAZ [2] = test: Time-of-addition: viral internalization assay; format: cell-based, Hepatitis E virus; conditions: PLC/PRF/5 cells
eHEV-nanoKAZ [3] = test: microbe, parasite or virus in culture; conditions: Hepatitis E virus, PLC-PRF-5, read-out: Inhibition (%) of intracellular luciferase activity
eHEV-nanoKAZ [4] = test: Time-of-addition: viral attachment assay (intracellular luciferase activity); format: cell-based, Hepatitis E virus; conditions: PLC/PRF/5 cells
[5] = design: method as in ref 47 = [47]; conditions: Antiretroviral Pregnancy Registry (APR); cited from earlier work
eHEV-nanoKAZ [6] = test: Time-of-addition: viral inactivation assay (intracellular luciferase activity); conditions: PLC/PRF/5 cells, 4 days post-inoculation
HEV [7] = tested on: HEV; design: method as in ref 31 = [31]; conditions: cited from earlier work
HEV [8] = conditions: ribavirin monotherapy; undetectable serum HEV RNA at least six months after cessation; cited from earlier work
eHEV-3 (JE03-1760F) [9] = test: HEV growth in PLC/PRF/5 cells robustly producing eHEV-3; format: cell-based, Hepatitis E virus genotype 3
eHEV-4 (HE-JF5/15F) [10] = test: HEV growth in PLC/PRF/5 cells robustly producing eHEV-4; format: cell-based, Hepatitis E virus genotype 4
eHEV-4 (HE-JF5/15F) [11] = test: HEV growth in PLC/PRF/5 cells inoculated with eHEV-4; format: cell-based, Hepatitis E virus genotype 4; conditions: 48 dpi
eHEV-3 (JE03-1760F) [12] = test: HEV growth in PLC/PRF/5 cells inoculated with eHEV-3; format: cell-based, Hepatitis E virus genotype 3; conditions: 48 dpi
[13] = ribavirin 40 μM, 60 days after the start of drug treatment, mean of triplicate wells
[14] = ribavirin alone 40 µM, day 60 after the start of drug treatment
[15] = ribavirin 40 μM, mean of triplicate wells

OC[C@H]1O[C@@](CO)(O[C@H]2O[C@H](CO)[C@@H](O)[C@H](O)[C@H]2O)[C@@H](O)[C@@H]1O [Sucrose]
expression of ORF2 protein (eHEV-3 (JE03-1760F) [1]; sucrose 250 mM during 4 h inoculation): undetectable | intracellular luciferase activity (eHEV-nanoKAZ [2]; sucrose 250 mM added after attachment, 37 °C 2 h, compared to untreated control, p = 0.0033): 14.9%

CC(C)c1nc(CN(C)C(=O)N[C@H](C(=O)N[C@@H](Cc2ccccc2)C[C@H](O)[C@H](Cc2ccccc2)NC(=O)OCc2cncs2)C(C)C)cs1 [Ritonavir, ritonavir]
inhibition at 0.05 µM (eHEV-nanoKAZ [3]): 18.1% | inhibition at 0.1 µM (eHEV-nanoKAZ [3]): 29.1% | inhibition at 0.5 µM (eHEV-nanoKAZ [3]): 59.6% | inhibition at 1 µM (eHEV-nanoKAZ [3]): 71.6% | inhibition at 5 µM (eHEV-nanoKAZ [3]): 89.7% | inhibition at 35 µM (eHEV-nanoKAZ [3]): 95.9% | expression of ORF2 protein (eHEV-3 (JE03-1760F) [1]; ritonavir 20 µM during 4 h inoculation): undetectable | intracellular luciferase activity (eHEV-nanoKAZ [4]; ritonavir 20 µM during attachment (4 °C 1 h, 37 °C 1 h), compared to untreated control): 100.4% | risk of human teratogenicity [5]: no evidence of an increased risk of human teratogenicity | intracellular luciferase activity (eHEV-nanoKAZ [2]; ritonavir 20 µM added after attachment, 37 °C 2 h, compared to untreated control, p = 0.0036): 9.6% | intracellular luciferase activity (eHEV-nanoKAZ [6]; ritonavir 20 µM pre-incubated with eHEV-nanoKAZ 1 h 37 °C, compared to untreated control): 94.3% | inhibition of HEV growth in cultured cells (HEV [7]): potent inhibition of HEV growth in cultured cells

NC(=O)c1ncn([C@@H]2O[C@H](CO)[C@@H](O)[C@H]2O)n1 [Ribavirin, ribavirin]
inhibition at 1 µM (eHEV-nanoKAZ [3]): 20.4% | inhibition at 5 µM (eHEV-nanoKAZ [3]): 24.2% | inhibition at 10 µM (eHEV-nanoKAZ [3]): 33.3% | inhibition at 20 µM (eHEV-nanoKAZ [3]): 58% | inhibition at 40 µM (eHEV-nanoKAZ [3]): 79.6% | inhibition at 80 µM (eHEV-nanoKAZ [3]): 91% | sustained virological response (SVR), patients achieving (HEV [8]): approximately 80% | expression of ORF2 protein (eHEV-3 (JE03-1760F) [1]; ribavirin 40 µM during 4 h inoculation): detectable | intracellular luciferase activity (eHEV-nanoKAZ [4]; ribavirin 40 µM during attachment): did not decrease intracellular luciferase activity | Intracellular HEV RNA (eHEV-3 (JE03-1760F) [9]; [13]): 1.6 × 10^7 copies/well (mean) | HEV RNA titer in culture supernatants (eHEV-3 (JE03-1760F) [9]; [14]): 2.7 × 10^6 copies/mL | intracellular luciferase activity (eHEV-nanoKAZ [2]; ribavirin 40 µM added after attachment): did not decrease intracellular luciferase activity | Intracellular HEV RNA (eHEV-4 (HE-JF5/15F) [10]; [13]): 2.3 × 10^7 copies/well (mean) | HEV RNA titer in culture supernatants (eHEV-4 (HE-JF5/15F) [10]; [14]): 2.9 × 10^7 copies/mL | Intracellular HEV RNA (eHEV-4 (HE-JF5/15F) [11]; [15]): 4.4 × 10^7 copies/well (mean) | HEV RNA titer in culture supernatants (eHEV-4 (HE-JF5/15F) [11]; ribavirin monotherapy 40 µM): 4.3 × 10^7 copies/mL | intracellular luciferase activity (eHEV-nanoKAZ [6]; ribavirin 40 µM pre-incubated with eHEV-nanoKAZ): did not decrease intracellular luciferase activity | Intracellular HEV RNA (eHEV-3 (JE03-1760F) [12]; [15]): 1.2 × 10^8 copies/well (mean) | HEV RNA titer in culture supernatants (eHEV-3 (JE03-1760F) [12]; ribavirin monotherapy 40 µM): 2.0 × 10^7 copies/mL
